From US9061010B2, “Methods of treating a Flaviviridae family viral infection and compositions for treating a Flaviviridae family viral infection” (The Board of Trustees of the Leland Stanford Junior …, priority 2007, dated 2015)
Entries after “also recorded” stand apart in the source; their conditions may differ.

What was measured:
[1] = tested on: HCV RNA replication (full-length luciferase reporter-linked HCV genome); assay: Luciferase reporter-linked HCV replication assay in Huh7.5 cells; type: cell-based, Hepatitis C Virus; details: for percent of normal HCV RNA replication remaining at 5 µM / percent of normal HCV RNA replication remaining at 10 µM: Hepatitis C virus, Huh7.5, read-out: AV, percent of normal HCV RNA replication remaining
Protocol: For example, HCV replication assays employing a luciferase reporter-linked HCV genome in the presence of various combinations of clemizole and an NS3 protease inhibitor (SCH503034) are shown in FIGS. 1A and 1B. In such assays, luciferase activity is directly proportional to HCV RNA genome replication. […] The results can be plotted on a linear or log scale as a function of drug concentrations to generate replication inhibition curves.
Luciferase assays were performed at 72 hr.
(§1) Medium was changed daily.
The experiment was repeated four times, each time with triplicates.

HuR protein = biological target: T1, HuR protein (Homo sapiens, UniProt Q15717); assay: Microfluidic RNA binding assay of HuR (specificity of hits); details: 0.1 mM
T1 construct: made in house; […]
Source text: For each experiment, an image was taken after MITOMI and the final PBS wash. This was used to determine the concentration of surface bound protein (FITC channel) as well as surface bound target RNA (Cy3 channel). […] Data from multiple data points were averaged, and their standard deviations calculated. Results were then normalized to 1. Between 10-20 replicates were included for each probe tested. A control protein, Gus-his (Roche) was included in each experiment and subjected to the same analysis. When present, detected signal with Gus-his was used for background subtraction.
Specificity of hits identified in the small molecule screen: To determine the specificity of the hits identified in the small molecule screen, the HuR protein (one of the human RNA binding protein used to validate our RNA binding assay) was selected. […] Binding of HuR to the consensus 4A RNA sequence was tested in the presence of the inhibitory molecules shown to inhibit RNA binding by NS4B. […] Similarly, 0.1 mM of the identified compounds didn't have an inhibitory effect on binding of HuR to the 3′ terminus of the negative HCV RNA strand.

[2] = Alamar Blue viability assay; details: human
Protocol: (§2) Huh-7.5 cells were maintained in Dulbecco's modified minimal essential medium (Gibco) supplemented with 1% L-glutamine (Gibco), 1% penicillin, 1% streptomycin (Gibco), 1× nonessential amino acids (Gibco) and 10% fetal bovine serum (Omega Scientific). Cell lines were passaged twice weekly after treatment with 0.05% trypsin-0.02% EDTA and seeding at a dilution of 1:5. Subconfluent Huh-7.5 cells were trypsinized and collected by centrifugation at 700 g for 5 min. The cells were then washed three times in ice-cold RNase-free PBS (BioWhittaker) and resuspended at 1.5*10^7 cells/ml in PBS. Wild type or mutant FL-J6/JFH-5′C19Rluc2AUbi RNA for electroporation was generated by in vitro transcription of XbaI-linearized DNA templates using the T7 MEGAscript kit (Ambion), followed by purification, essentially as described above (In vitro RNA transcription and fluorescent labeling). 5 μg of RNA was mixed with 400 μl of washed Huh-7.5 cells in a 2 mm-gap cuvette (BTX) and immediately pulsed (0.82 kV, five 99 μs pulses) with a BTX-830 electroporator. After a 10 min recovery at 25° C., pulsed cells were diluted into 10 ml of prewarmed growth medium. Cells from several electroporations were pooled to a common a stock and seeded in 6 well plates (5*10^5 cells per well). After 24 hr, medium was replaced and cells were grown in the presence of serial dilutions of the various inhibitory compounds (Sigma) identified in the screen. […] Untreated cells were used as a negative control for water soluble compounds. For compounds solubilized in DMSO, untreated cells were grown in the presence of corresponding concentrations of the solvent as a negative control. Medium was changed daily. After 72 hr of treatment, cells were subjected to an alamar blue based viability assay and luciferase assay.
(§3) Following 72 hrs of treatment, cells were incubated for 3 hrs at 37° C. in the presence of 10% Alamar Blue reagent (TREK Diagnostic Systems).

Huh7.5 cells = assay: Alamar Blue viability assay
Protocol: as §2, §3

[3] = cited from earlier work
W55R mutant J6/JFH RNA = assay: Luciferase reporter-linked replication assay, W55R mutant; type: cell-based, Hepatitis C Virus; details: 10 μM clemizole; whole cell RNA or in vitro-transcribed RNA
Source text: Two of the clemizole-resistant NS4B mutants were characterized in detail. The first, W55R is depicted in FIG. 9a. It involves the substitution of an arginine for the tryptophan at amino acid 55 within a predicted cytoplasmically-oriented segment of NS4B. This mutation is sufficient to confer a clemizole-resistant phenotype in cells: Huh7.5 cells transfected with either whole cell RNA extracted from the W55R mutant cells (FIG. 9b) or with in vitro-transcribed J6/JFH RNA encoding this point mutation and a linked luciferase reporter gene (FIG. 9c) were unaffected by 10 μM clemizole.
The plasmid FL-J6/JFH-5′C19Rluc2AUbi that consists of the full-length HCV genome and expresses Renilla luciferase was a gift from Dr. Charles M. Rice^28. The W55R mutation was introduced into this plasmid by site-directed mutagenesis (using the QuikChange kit (Stratagene)).
as §1
Whole cell RNA was extracted from clemizole-resistant replicon clones and from untreated replicon cells using TRIzol reagent (Invitrogen). Equal amounts of whole cell RNA (50 μg) were electroporated into Huh7.5 cells as described above. Cells were grown under G418 selection in the presence or absence of clemizole for 3 weeks. The number of colonies was determined using Image J (NIH) following fixation and staining with Crystal violet.

HCV (genotype 4) = assay: Treatment of patients chronically infected with HCV, serum HCV viral load; type: in vivo, human
Protocol: Three patients chronically-infected with HCV (genotype 4) were treated in accordance with an embodiment of the method of the invention. All were male and had baseline ALT elevations and significant HCV viral loads ranging from 290,000-730,000 IU/ml.
After the first four weeks of clemizole monotherapy, pegylated interferon (180 micrograms Pegasus (Roche) s.q. per week) was added.

[4] = biological target: T2, W55R NS4B mutant binding to HCV RNA (Hepatitis C virus genotype 1a, UniProt P27958, A1893V/D1840G/F1898S/L1839I/R1905H/S1900A/W1766R); assay: Microfluidic in vitro RNA binding assay, W55R NS4B mutant; details: 10 nM clemizole
T2 construct: made in house; host or cells: coupled transcription/translation rabbit reticulocyte system (Promega) with canine microsomal membranes
Source text: This mutation was also introduced into the NS4B-GFP vector and the resulting vector tested for its RNA binding activity using the in vitro microfluidic assay of the invention.
The plasmid pcDNA-NS4B-GFP encoding NS4B of genotype 1a fused in frame with a C-terminal GFP was previously described^5. The mutations RRa, RRb and W55R were introduced into this plasmid by site-directed mutagenesis (using the QuikChange kit (Stratagene)). The plasmid NS5A(AH)GFP was constructed as previously reported. Gus-his vector was obtained from Roche.

[5] = cited from earlier work; remark: listed apart in the source
[6] = biological target: HCV NS4B binding to the 3′ terminus of the HCV negative strand RNA (Hepatitis C virus genotype 1a, UniProt P27958); assay: Microfluidic (MITOMI) in vitro RNA binding assay of NS4B; details: 10 nM clemizole

Compound	AV score ([1]; 5 uM)	AV score ([1]; 10 uM)	percent of normal HCV RNA replication remaining at 5 µM ([1]; 5 uM)	percent of normal HCV RNA replication remaining at 10 µM ([1]; 10 uM)	further results
Cc1ccc(Cn2cnc3ccccc32)cc1	++ (30-60% residual activity)	+++ (0-30% residual activity)	49%	23%	–
CC(C)(C)c1ccc(Cn2cnc3ccccc32)cc1	+++ (0-30% residual activity)	+++ (0-30% residual activity)	30%	12%	–
O=C(O)C1=CC(=C(c2ccc(O)c(C(=O)O)c2)c2ccc(O)c(C(=O)O)c2)C=CC1=O [ATA, Aurintricarboxilic acid]	–	–	–	–	inhibitory effect on binding of HuR to the 3′ terminus of the negative HCV RNA strand (HuR protein): significantly inhibited; inhibitory effect on binding of HuR to the consensus 4A RNA sequence (HuR protein): significantly inhibited
Cc1nc2cc(Cl)ccc2n1Cc1ccccc1	+ (60-90% residual activity)	+ (60-90% residual activity)	87%	60%	–
Cc1nc2ccccc2n1Cc1ccc(Br)cc1	+++ (0-30% residual activity)	+++ (0-30% residual activity)	3%	2%	–
COc1ccc(Cn2cnc3ccccc32)cc1	+ (60-90% residual activity)	++ (30-60% residual activity)	70%	58%	–
Clc1ccc(Cn2c(CN3CCCC3)nc3ccccc32)cc1 [drawing 374]	+ (60-90% residual activity)	++ (30-60% residual activity)	62%	37%	viability at 72 h, 5 µM [2]: 90 to 100%; viability at 72 h, 10 µM [2]: 90 to 100%; Viab, percent of normal cell viability remaining (Huh7.5 cells; 5 uM): 107%; Viab, percent of normal cell viability remaining (Huh7.5 cells; 10 uM): 93%
Interferon alpha B2	–	–	–	–	reduction of luciferase activity (positive control) ([1]; 100 u/ml, 72 hr treatment): three log reduction
COC(=O)c1ccc(Cn2cnc3ccccc32)cc1	+ (60-90% residual activity)	++ (30-60% residual activity)	74%	54%	–
Cl.Clc1ccc(Cn2c(CN3CCCC3)nc3ccccc32)cc1 [Clemizole hydrochloride, 1-p-Chlorobenzyl-2-(1-pyrrolidinyl)methylbenzimidazole hydrochloride, reference compound]	–	–	–	–	decrease in viral replication ([1]; 20 μM, luciferase at 72 hr): tenfold decrease; cellular toxicity (Huh7.5 cells; at concentrations up to 20 μM, 72 hr, Alamar Blue): no measurable cellular toxicity; time to relief of itching ([3]; human, in vivo): 24 to 48 h
OCc1nc2ccccc2n1Cc1ccc(Br)cc1	++ (30-60% residual activity)	+++ (0-30% residual activity)	50%	28%	–
Clc1ccc(Cn2c(CN3CCCC3)nc3ccccc32)cc1 [clemizole]	–	–	–	–	difference between IC50 for in vitro RNA binding and EC50 for antiviral effect in cells [1]: ~400 fold; effect of adding clemizole to SCH503034 on inhibition of HCV replication ([1]; SCH503034 1-5 micromolar, 72 hours, FIGS. 1A and 1B): increase the inhibition of HCV replication in a dose-dependent manner by up to several logs; toxicity to the cell in the real-time PCR experiment (Huh7.5 cells; HCV-infected Huh7.5 cells, 72 hours, FIG. 15): no measurable toxicity to the cell; replication of W55R mutant in presence of clemizole (W55R mutant J6/JFH RNA): unaffected; inhibitory effect on binding of HuR to the consensus 4A RNA sequence (HuR protein): No inhibitory effect; HCV viral load after clemizole monotherapy (HCV (genotype 4); 100 mg po BID, week 4, 3 patients): nearly at or below the limit of HCV detection; also recorded: completely, or nearly, undetectable; HCV viral load after clemizole monotherapy plus clemizole with pegylated interferon (HCV (genotype 4); 4 weeks monotherapy plus 4 weeks clemizole-standard dose pegylated interferon): below the limit of detection; reduction of RNA binding, W55R mutant NS4B [4]: ~2 fold; drowsiness, share of patients treated ([5]; Zierz and Greither): 1.3%; patients with drowsiness ([5]; human, in vivo): 2 of the 104 patients; subjects who responded to treatment ([5]; various dosage forms): 92 of the 104 subjects; patients reporting excellent relief of itching ([3]; 40 to 160 mg/day): 66%; patients reporting good relief of itching ([3]; 40 to 160 mg/day): 23%; patients with mild side effects ([3]; drowsiness most common): 4 patients; reduction of RNA binding, wild type NS4B [6]: ~2 fold
Cc1cc2ncn(Cc3ccc(Cl)cc3Cl)c2cc1C	+++ (0-30% residual activity)	+++ (0-30% residual activity)	30%	8%	–
Brc1ccc(Cn2cnc3ccccc32)cc1	+++ (0-30% residual activity)	+++ (0-30% residual activity)	23%	8%	–
